Experimental data reported in US20210379063A1, “ORAL AMINODIHYDROPHTHALAZINEDIONE COMPOSITIONS AND THEIR USE IN THE TREATMENT OF NON-VIRAL HEPATITIS” (Immunopharma Plus D.O.O., priority 2018, published 2021).
Entries after “also recorded” stand apart in the source; their conditions may differ. Read-outs that look alike come from different tables or passages of the source. Each block holds one molecule with its values, some of them ahead of it.

Experiments:
porcine stomach (cardia) = details: for concentration in receptor compartment, Propranolol stomach, AVG / concentration in receptor compartment, Propranolol stomach: 10 mM donor solution; for concentration in receptor compartment, Propranolol stomach: single chambers
[1] = cited from earlier work
[2] = system: porcine large intestine (colon); test: in vitro; details: pig, 10 mM, pH 7.4
Experimental: (§1) The intestine was prepared so the mucous side will be facing the donor compartment.

in vitro = details: pig, pH 7.4
Experimental: as §1

PHMG poisoning = test: Acute hepatitis caused by alcohol substitute PHMG in rats; details: single intraperitoneal injection, 50 mg/100 g
Experimental: The experiment was carried out on 25 male white outbred rats weighing 200-300 g, in accordance with the recommendations of the international ethics committees on the humane treatment of laboratory animals (EU Council Directive 86/609 EEC dated Nov. 24, 1986). To create an experimental model, an aqueous solution of PHMG was used, which was administered intraperitoneally at a dose of 50 mg/100 g.

Experimental for porcine small intestine: Porcine Small Intestinal (SI) Permeability Procedure • Full thickness pig small intestinal delivered to Solubest on the day of the experiment. • Experiments were carried out on 6 slices 2 cm*2 cm with full thickness pig small intestinal sample • The intestinal was prepared so brush border side is facing the donor compartment. • According to Solubest protocol the excess mucus and connective tissue were removed • The receiver compartment contains 0.01M Phosphate Buffer pH 7.4 (PBS). • Receiver's samples were withdrawn at 5 time points (30 min, 60 min, 120 min, 4 hours and 6 hours). • Water pump was set to temp 38±1° C. in order to keep fixed temp in receptor department at 37±1° C.

concentration in receptor compartment, Propranolol stomach, AVG (porcine stomach (cardia); 0 min): 0 ng/mL
concentration in receptor compartment, Propranolol stomach (porcine stomach (cardia); 0 min): 0 ng/mL
concentration in receptor compartment, Propranolol stomach, AVG (porcine stomach (cardia); 30 min): 0 ng/mL
concentration in receptor compartment, Propranolol stomach (porcine stomach (cardia); 30 min): 0 ng/mL
concentration in receptor compartment, Propranolol stomach, AVG (porcine stomach (cardia); 60 min): 0 ng/mL
concentration in receptor compartment, Propranolol stomach (porcine stomach (cardia); 60 min): 0 ng/mL
concentration in receptor compartment, Propranolol stomach, AVG (porcine stomach (cardia); 120 min): 0 ng/mL
concentration in receptor compartment, Propranolol stomach (porcine stomach (cardia); 120 min): 0 ng/mL
concentration in receptor compartment, Propranolol stomach, AVG (porcine stomach (cardia); 240 min): 0 ng/mL
concentration in receptor compartment, Propranolol stomach (porcine stomach (cardia); 240 min): 0 ng/mL
concentration in receptor compartment, Propranolol stomach, AVG (porcine stomach (cardia); 420 min): 0 ng/mL
concentration in receptor compartment, Propranolol stomach (porcine stomach (cardia); 420 min): 0 ng/mL
concentration in receptor comp, large intestine, AVG ([2]; 0 min): 0 ng/mL
concentration in receptor compartment, large intestine ([2]; 0 min): 0 ng/mL
mg in receptor comp ([2]; 0 min): 0.000 mg
concentration in receptor comp, large intestine, AVG ([2]; 30 min): 2000 ng/mL
mg in receptor comp ([2]; 30 min): 0.010 mg
concentration in receptor comp, large intestine, AVG ([2]; 60 min): 5000 ng/mL
mg in receptor comp ([2]; 60 min): 0.026 mg
concentration in receptor comp, large intestine, AVG ([2]; 120 min): 14000 ng/mL
mg in receptor comp ([2]; 120 min): 0.068 mg
concentration in receptor comp, large intestine, AVG ([2]; 240 min): 31000 ng/mL
mg in receptor comp ([2]; 240 min): 0.154 mg
concentration in receptor comp, large intestine, AVG ([2]; 360 min): 45000 ng/mL
mg in receptor comp ([2]; 360 min): 0.223 mg
concentration in receptor comp, large intestine, AVG ([2]; 720 min): 84000 ng/mL
mg in receptor comp ([2]; 720 min): 0.421 mg
recovery at 0 min, 10 mM (in vitro): 0%
recovery at 30 min, 10 mM (in vitro): 0.16%
recovery at 60 min, 10 mM (in vitro): 0.4%
recovery at 120 min, 10 mM (in vitro): 1.04%
recovery at 240 min, 10 mM (in vitro): 2.36%
recovery at 360 min, 10 mM (in vitro): 3.43%
recovery at 720 min, 10 mM (in vitro): 6.47%
permeability through small intestine tissue, in words (porcine small intestine): well adsorbed
concentration in receptor compartment, small intestine, AVG (porcine small intestine; 10 mM donor solution, 0 min): 0 ng/mL
concentration in receptor compartment, small intestine (porcine small intestine; 10 mM donor solution, 0 min, single chambers): 0 ng/mL
concentration in receptor compartment, small intestine, AVG (porcine small intestine; 10 mM donor solution, 30 min): 1000 ng/mL
concentration in receptor compartment, small intestine, AVG (porcine small intestine; 10 mM donor solution, 60 min): 5000 ng/mL
concentration in receptor compartment, small intestine, AVG (porcine small intestine; 10 mM donor solution, 120 min): 13000 ng/mL
concentration in receptor compartment, small intestine, AVG (porcine small intestine; 10 mM donor solution, 240 min): 33000 ng/mL
concentration in receptor compartment, small intestine, AVG (porcine small intestine; 10 mM donor solution, 360 min): 55000 ng/mL
permeability through small intestine tissue, in words (porcine small intestine; listed as propranolol): permeates well
Molecule: CC(C)NCC(O)COc1cccc2ccccc12 (centres unmarked) [Propranolol]
permeation through stomach tissue, in words (porcine stomach (cardia)): almost no permeation; also recorded: poorly penetrate through the stomach tissue
time of peak plasma levels ([1]; after ingestion): 1 to 3 h
BSC classification ([1]; high solubility, high permeability): class 1

Molecule: polyhexamethyleneguanidine [PHMG]
mortality (PHMG poisoning): about 70%
